Values belong to the molecule of their own block, whether it stands above or below them.
Tests used:
[1] = molecular target: T1, ENTH domain of epsin1 (ENTH^WT; Rat Epsin1 WT ENTH 1–164) (Rattus norvegicus, UniProt O88339); test: LUV co-sedimentation with SDS-PAGE, electron microscopy, DLS: partial restoration of oligomerization and membrane remodeling; assay type: biochemical; conditions: 4 times molar excess of L-SOP to ENTH; PS-free PC/PE/PI(4,5)P2 (65:30:5) LUVs; effect on oligomerization, binding not measured directly
T1 construct: gene Epn1; ENTH domain residues 1-164, pGEX-6P-2, expressed in E. coli BL21(DE3), GST tag cleaved with PreScission protease
T1 sequence (O88339 1-164): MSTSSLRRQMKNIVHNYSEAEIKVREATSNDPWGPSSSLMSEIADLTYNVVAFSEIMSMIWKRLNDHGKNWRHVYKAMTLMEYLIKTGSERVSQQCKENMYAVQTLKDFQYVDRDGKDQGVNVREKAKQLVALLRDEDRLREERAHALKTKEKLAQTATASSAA

[2] = molecular target: T2, ENTH domain of epsin1 (ENTH^WT; Rat Epsin1 WT ENTH 1–164) (Rattus norvegicus, UniProt O88339, R114A); test: reflectometric interference spectroscopy (RIfS), Langmuir adsorption isotherm; assay type: binding; conditions: PI(4,5)P2 in supported POPC/PI(4,5)P2 (95:5) bilayer without PS; PBS pH 7.4; apparent membrane dissociation constant in protein concentration
T2 construct: gene Epn1; ENTH domain residues 1-164, pGEX-6P-2, expressed in E. coli BL21(DE3), GST tag cleaved with PreScission protease
T2 sequence (O88339 1-164 R114A): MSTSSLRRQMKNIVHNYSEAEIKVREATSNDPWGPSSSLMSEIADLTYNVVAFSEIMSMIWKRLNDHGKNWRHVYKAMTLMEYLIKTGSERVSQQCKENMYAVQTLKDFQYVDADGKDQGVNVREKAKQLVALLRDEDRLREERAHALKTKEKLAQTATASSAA
Excerpt: (§1) reflectometric interference spectroscopy (RIfS), Langmuir adsorption isotherm on ENTH domain of epsin1 (ENTH^WT; Rat Epsin1 WT ENTH 1–164)

[3] = molecular target: T1, ENTH domain of epsin1 (ENTH^WT; Rat Epsin1 WT ENTH 1–164); test: as above; assay type: binding; conditions: PI(4,5)P2 in supported POPC/PI(4,5)P2 (95:5) bilayer without PS; PBS pH 7.4; apparent membrane dissociation constant in protein concentration
Excerpt: as §1

[4] = molecular target: the molecule itself; test: SDS-resistant oligomers on SDS-PAGE after liposome co-sedimentation; 20 µM protein with 2 mg/ml LUVs that contain PS (Folch + PI(4,5)P2, or PC/PE/PS/PI(4,5)P2 with 5-20% PS), 3 h 30 °C, HEPES buffer, 205,000 x g, pellet and supernatant on SDS-PAGE; self-association on membranes
[5] = molecular target: the molecule itself; test: FRET or BRET; Atto488-labeled (donor) and Atto532-labeled (acceptor) ENTH domains, total 5 and 15 µM, in 2 mg/ml LUV suspension; LUVs PC/PE/PS/PI(4,5)P2 (45:30:20:5) compared with PS-free PC/PE/PI(4,5)P2 (65:30:5), on which the wild type gave reduced FRET; excitation 493 nm

Molecule: N[C@@H](COP(=O)(O)O)C(=O)O [L-SOP]
LUV co-sedimentation with SDS-PAGE, electron microscopy, DLS: partial restoratio [1]: presence of the PS headgroup was sufficient to partially restore oligomerization and membrane remodeling

Kd [2]: 2900 ± 800 nM
Kd [3]: 1000 ± 200 nM
Molecule: PI(4,5)P2

B1: Rat Epsin1 WT ENTH 1-164 (domain or fragment, UniProt O88339 1-164, looked up)
chain: MSTSSLRRQMKNIVHNYSEAEIKVREATSNDPWGPSSSLMSEIADLTYNVVAFSEIMSMIWKRLNDHGKNWRHVYKAMTLMEYLIKTGSERVSQQCKENMYAVQTLKDFQYVDRDGKDQGVNVREKAKQLVALLRDEDRLREERAHALKTKEKLAQTATASSAA
notes: Epsin 1, rat, ENTH (epsin N-terminal homology) domain, residues 1-164; Expressed from pGEX-6P-2; also called ENTH domain; ENTH^WT; source: E. coli BL21(DE3), purified (GSTrap, GST cleaved with PreScission Protease, anion exchange, SEC)
binding result [4]: binds

B2: ENTH WT (C96A A155C), fluorescently labeled (domain or fragment, rat, UniProt O88339 1-164, looked up)
chain: MSTSSLRRQMKNIVHNYSEAEIKVREATSNDPWGPSSSLMSEIADLTYNVVAFSEIMSMIWKRLNDHGKNWRHVYKAMTLMEYLIKTGSERVSQQAKENMYAVQTLKDFQYVDRDGKDQGVNVREKAKQLVALLRDEDRLREERAHALKTKEKLCQTATASSAA
modifications: Atto488 maleimide (donor population) or Atto532 maleimide (acceptor population) by cysteine modification
notes: Epsin 1, rat, ENTH domain, residues 1-164, with C96A and A155C for labeling; Two populations of the same construct, one with Atto488 and one with Atto532, were mixed for FRET; also called ENTH-Atto-488; ENTH-Atto-532; source: E. coli BL21(DE3), purified (GSTrap, GST cleaved with PreScission Protease, anion exchange, SEC), then labeled
binding result [5]: binds

Source: PMC7966211, “Cooperativity of membrane-protein and protein–protein interactions control membrane remodeling by epsin 1 and affects clathrin-mediated endocytosis” (Cellular and Molecular Life Sciences: CMLS, 2020)
